The values below come from publication PMC5218480 (PLoS ONE, 2017).

The test system of the assay is MV-4-11 cells. Put plainly: Gene expression microarray analysis (Affymetrix PrimeView) and GSEA. It counts as cell-based, human. Details: RFU PODN (11730768_x_at) / Fold change /veh PODN (11730768_x_at) / RFU LINC00158 (11744669_a_at) / Fold change /veh LINC00158 (11744669_a_at) / RFU DUSP10 (11751237_a_at) / Fold change /veh DUSP10 (11751237_a_at) / RFU ID3 (11757404_x_at) / Fold change /veh ID3 (11757404_x_at) / RFU PLEKHG5 (11737974_s_at) / Fold change /veh PLEKHG5 (11737974_s_at) / RFU LRRC4B (11730491_at) / Fold change /veh LRRC4B (11730491_at) / RFU GIMAP4 (11747438_a_at) / Fold change /veh GIMAP4 (11747438_a_at) / RFU KRT8 (11758183_x_at) / Fold change /veh KRT8 (11758183_x_at) / RFU CNN1 (11734310_a_at) / Fold change /veh CNN1 (11734310_a_at) / RFU VPS37D (11726825_at) / Fold change /veh VPS37D (11726825_at) / RFU C10orf10 (11716522_x_at) / Fold change /veh C10orf10 (11716522_x_at) / RFU KIR2DL2 /// KIR2DL4 /// KIR2DL5A /// KIR2DL5B /// KIR2DS1 /// KIR2DS2 /// KIR2DS3 /// KIR2DS4 /// KIR3DL3 /// KIR3DL3 /// KIR3DS1 (11738374_at) / Fold change /veh KIR2DL2 /// KIR2DL4 /// KIR2DL5A /// KIR2DL5B /// KIR2DS1 /// KIR2DS2 /// KIR2DS3 /// KIR2DS4 /// KIR3DL3 /// KIR3DL3 /// KIR3DS1 (11738374_at) / RFU C1QL1 (11718748_at) / Fold change /veh C1QL1 (11718748_at) / RFU TMPRSS4 (11747572_a_at) / Fold change /veh TMPRSS4 (11747572_a_at) / RFU HAMP (11756126_x_at) / Fold change /veh HAMP (11756126_x_at) / RFU RNFT2 (11725882_a_at) / Fold change /veh RNFT2 (11725882_a_at) / RFU NR4A2 (11747474_a_at) / Fold change /veh NR4A2 (11747474_a_at) / RFU ABCC12 (11746883_a_at) / Fold change /veh ABCC12 (11746883_a_at) / RFU TMEM136 (11760407_x_at) / Fold change /veh TMEM136 (11760407_x_at) / RFU CLDN22 /// WWC2 (11732394_at) / Fold change /veh CLDN22 /// WWC2 (11732394_at) / RFU HLA-DPB1 (11760878_x_at) / Fold change /veh HLA-DPB1 (11760878_x_at) / RFU SPINT1 (11716480_a_at) / Fold change /veh SPINT1 (11716480_a_at) / RFU GAP43 (11754022_s_at) / Fold change /veh GAP43 (11754022_s_at) / RFU A4GNT (11735810_at) / Fold change /veh A4GNT (11735810_at) / RFU PRB3 (11715151_x_at) / Fold change /veh PRB3 (11715151_x_at) / RFU TUBB4B (11761932_at) / Fold change /veh TUBB4B (11761932_at) / RFU CAPN14 (11732068_a_at) / Fold change /veh CAPN14 (11732068_a_at) / RFU TMCC2 (11721928_a_at) / Fold change /veh TMCC2 (11721928_a_at) / RFU IRGQ (11745062_a_at) / Fold change /veh IRGQ (11745062_a_at) / RFU FAM174B (11720279_a_at) / Fold change /veh FAM174B (11720279_a_at) / RFU TMPRSS4 (11748680_a_at) / Fold change /veh TMPRSS4 (11748680_a_at) / RFU FAM212B (11763350_a_at) / Fold change /veh FAM212B (11763350_a_at) / RFU PLEKHG5 (11743358_a_at) / Fold change /veh PLEKHG5 (11743358_a_at) / RFU ZSCAN30 (11745921_a_at) / Fold change /veh ZSCAN30 (11745921_a_at) / RFU CMKLR1 (11741424_a_at) / Fold change /veh CMKLR1 (11741424_a_at) / RFU LOC101060620 /// MAPK8IP1 (11723275_at) / Fold change /veh LOC101060620 /// MAPK8IP1 (11723275_at) / RFU SPTSSB (11747773_x_at) / Fold change /veh SPTSSB (11747773_x_at) / RFU PRSS12 (11739890_at) / Fold change /veh PRSS12 (11739890_at) / RFU BIN1 (11741810_x_at) / Fold change /veh BIN1 (11741810_x_at) / RFU WNT11 (11732464_a_at) / Fold change /veh WNT11 (11732464_a_at) / RFU C10orf10 (11716521_a_at) / Fold change /veh C10orf10 (11716521_a_at) / RFU C5orf56 (11738089_at) / Fold change /veh C5orf56 (11738089_at) / RFU CYB561 (11721691_x_at) / Fold change /veh CYB561 (11721691_x_at) / RFU ANKRD19P (11752326_a_at) / Fold change /veh ANKRD19P (11752326_a_at) / RFU OR2T12 /// OR2T33 /// OR2T8 (11738714_s_at) / Fold change /veh OR2T12 /// OR2T33 /// OR2T8 (11738714_s_at) / RFU VCAN (11748164_a_at) / Fold change /veh VCAN (11748164_a_at) / RFU JSRP1 (11732532_at) / Fold change /veh JSRP1 (11732532_at) / RFU KRTAP10-11 (11738290_x_at) / Fold change /veh KRTAP10-11 (11738290_x_at) / RFU MYO3A (11730013_a_at) / Fold change /veh MYO3A (11730013_a_at) / RFU EBF3 (11725865_a_at) / Fold change /veh EBF3 (11725865_a_at) / RFU CAMK2N1 (11719241_x_at) / Fold change /veh CAMK2N1 (11719241_x_at) / RFU C5orf56 (11738088_a_at) / Fold change /veh C5orf56 (11738088_a_at) / RFU OLFML3 (11715873_a_at) / Fold change /veh OLFML3 (11715873_a_at) / RFU LOC100653217 /// NTM (11731650_a_at) / Fold change /veh LOC100653217 /// NTM (11731650_a_at) / RFU MAPK11 (11762145_a_at) / Fold change /veh MAPK11 (11762145_a_at) / RFU FIZ1 (11724087_x_at) / Fold change /veh FIZ1 (11724087_x_at) / RFU OASL (11726364_x_at) / Fold change /veh OASL (11726364_x_at) / RFU SOX15 (11748057_x_at) / Fold change /veh SOX15 (11748057_x_at) / RFU CD79A (11719716_a_at) / Fold change /veh CD79A (11719716_a_at) / RFU HIST1H1D (11736915_at) / Fold change /veh HIST1H1D (11736915_at) / RFU CASKIN2 (11723855_a_at) / Fold change /veh CASKIN2 (11723855_a_at) / RFU LOC730098 (11760151_x_at) / Fold change /veh LOC730098 (11760151_x_at) / RFU OR4N2 (11742367_at) / Fold change /veh OR4N2 (11742367_at) / RFU PRRT2 (11749266_a_at) / Fold change /veh PRRT2 (11749266_a_at) / RFU SNX32 (11753110_a_at) / Fold change /veh SNX32 (11753110_a_at) / RFU CDHR5 (11726645_a_at) / Fold change /veh CDHR5 (11726645_a_at) / RFU RCAN1 (11760418_a_at) / Fold change /veh RCAN1 (11760418_a_at) / RFU FAM167A (11723789_a_at) / Fold change /veh FAM167A (11723789_a_at) / RFU FAM26E (11764081_at) / Fold change /veh FAM26E (11764081_at) / RFU ISYNA1 (11749810_s_at) / Fold change /veh ISYNA1 (11749810_s_at) / RFU ACY1 (11761880_at) / Fold change /veh ACY1 (11761880_at) / RFU 11764098_at / Fold change /veh 11764098_at / RFU SAMD14 (11745864_x_at) / Fold change /veh SAMD14 (11745864_x_at) / RFU NPB (11741838_a_at) / Fold change /veh NPB (11741838_a_at) / RFU TMPRSS6 (11731388_a_at) / Fold change /veh TMPRSS6 (11731388_a_at) / RFU KRTAP10-2 (11738614_at) / Fold change /veh KRTAP10-2 (11738614_at) / RFU ARHGAP8 /// PRR5-ARHGAP8 (11727945_x_at) / Fold change /veh ARHGAP8 /// PRR5-ARHGAP8 (11727945_x_at) / RFU KRTAP5-7 /// NADSYN1 (11734609_at) / Fold change /veh KRTAP5-7 /// NADSYN1 (11734609_at) / RFU RASL12 (11751679_a_at) / Fold change /veh RASL12 (11751679_a_at) / RFU CDKN2B (11736163_a_at) / Fold change /veh CDKN2B (11736163_a_at) / RFU PRF1 (11729649_at) / Fold change /veh PRF1 (11729649_at) / RFU, ZNF638 /// ZNF638-IT1 / Fold change vs veh, ZNF638 /// ZNF638-IT1 / RFU, PANK3 / Fold change vs veh, PANK3 / RFU, SH3YL1 / Fold change vs veh, SH3YL1 / RFU, ZEB2 / Fold change vs veh, ZEB2 / RFU, NRIP1 / Fold change vs veh, NRIP1 / RFU, PTTG1IP / Fold change vs veh, PTTG1IP / RFU, CAPN2 / Fold change vs veh, CAPN2 / RFU, MED14 / Fold change vs veh, MED14 / RFU, SNORA58 / Fold change vs veh, SNORA58 / RFU, C1orf63 / Fold change vs veh, C1orf63 / RFU, LRRFIP1 / Fold change vs veh, LRRFIP1 / RFU, NDUFAF7 / Fold change vs veh, NDUFAF7 / RFU, SLC12A2 / Fold change vs veh, SLC12A2 / RFU, IBTK / Fold change vs veh, IBTK / RFU, ESF1 / Fold change vs veh, ESF1 / Fold change vs veh, TMEM50B / RFU, TAOK1 / Fold change vs veh, TAOK1 / RFU, ACBD3 / Fold change vs veh, ACBD3 / RFU, TMA16 / Fold change vs veh, TMA16 / RFU, RWDD3 / Fold change vs veh, RWDD3 / RFU, BCAT1 / Fold change vs veh, BCAT1 / RFU, EDEM3 / Fold change vs veh, EDEM3 / RFU, TMEM33 / Fold change vs veh, TMEM33 / RFU, WDR75 / Fold change vs veh, WDR75 / RFU, AHCTF1 / Fold change vs veh, AHCTF1 / RFU, TFRC / Fold change vs veh, TFRC / RFU, ZDHHC17 / Fold change vs veh, ZDHHC17 / RFU, NOM1 / Fold change vs veh, NOM1 / RFU, ARL8B / Fold change vs veh, ARL8B / RFU, ZBTB11 / Fold change vs veh, ZBTB11 / RFU, TAMM41 / Fold change vs veh, TAMM41 / RFU, KIAA1704 /// LOC100996395 / Fold change vs veh, KIAA1704 /// LOC100996395 / RFU, ING1 / Fold change vs veh, ING1 / RFU, TRMT61B / Fold change vs veh, TRMT61B / RFU, FUBP3 / Fold change vs veh, FUBP3 / RFU, TP53 / Fold change vs veh, TP53 / RFU, TNKS2 / Fold change vs veh, TNKS2 / RFU, ZFP14 / Fold change vs veh, ZFP14 / RFU, ACTR2 / Fold change vs veh, ACTR2 / RFU, PPP3R1 / Fold change vs veh, PPP3R1 / RFU, PIK3R1 / Fold change vs veh, PIK3R1 / RFU, HNRNPA1 / Fold change vs veh, HNRNPA1 / RFU, RNF170 / Fold change vs veh, RNF170 / RFU, ZNF28 / Fold change vs veh, ZNF28 / RFU, RNGTT / Fold change vs veh, RNGTT / RFU, OGT / Fold change vs veh, OGT / RFU, BRD1 / Fold change vs veh, BRD1 / RFU, MARS / Fold change vs veh, MARS / RFU, ZNF655 / Fold change vs veh, ZNF655 / RFU, FAHD1 / Fold change vs veh, FAHD1 / RFU, BDP1 / Fold change vs veh, BDP1 / RFU, LRRCC1 / Fold change vs veh, LRRCC1 / RFU, ARID1A / Fold change vs veh, ARID1A / RFU, ZNF146 / Fold change vs veh, ZNF146 / RFU, ZNF330 / Fold change vs veh, ZNF330 / RFU, GPN3 / Fold change vs veh, GPN3 / RFU, C9orf123 / Fold change vs veh, C9orf123 / RFU, N4BP2L2 / Fold change vs veh, N4BP2L2 / RFU, ARFIP1 / Fold change vs veh, ARFIP1 / RFU, FAM179B / Fold change vs veh, FAM179B / RFU, BCL10 / Fold change vs veh, BCL10 / RFU, UHRF1BP1L / Fold change vs veh, UHRF1BP1L / RFU, BET1 / Fold change vs veh, BET1 / RFU, CNOT2 / Fold change vs veh, CNOT2 / RFU, ZNF268 / Fold change vs veh, ZNF268 / Fold change vs veh, ZNF507 / RFU, DGCR2 / Fold change vs veh, DGCR2 / RFU, WDSUB1 / Fold change vs veh, WDSUB1 / Fold change vs veh, HSP90B1 /// MIR3652 / RFU, ADSS / Fold change vs veh, ADSS / RFU, GK / Fold change vs veh, GK / RFU, ZNF148 / Fold change vs veh, ZNF148 / RFU, TAF9 / Fold change vs veh, TAF9 / RFU, SLC1A5 / Fold change vs veh, SLC1A5 / RFU, SLMO2 / Fold change vs veh, SLMO2 / RFU, ABCC4 / Fold change vs veh, ABCC4 / RFU, LOC101060439 /// RAP1B / Fold change vs veh, LOC101060439 /// RAP1B / RFU, RFX7 / Fold change vs veh, RFX7 / RFU, GTPBP10 / Fold change vs veh, GTPBP10 / RFU, CNEP1R1 / Fold change vs veh, CNEP1R1 / RFU, BIVM-ERCC5 /// ERCC5 / Fold change vs veh, BIVM-ERCC5 /// ERCC5 / RFU, ILF3 / Fold change vs veh, ILF3 / RFU 11762660_at / Fold change /veh 11762660_at / RFU VCAN (11757783_s_at) / Fold change /veh VCAN (11757783_s_at) / RFU DDX43 (11728927_at) / Fold change /veh DDX43 (11728927_at) / RFU KRT8 (11758188_x_at) / Fold change /veh KRT8 (11758188_x_at) / RFU NKD1 (11759106_at) / Fold change /veh NKD1 (11759106_at) / RFU SRD5A1 (11742802_a_at) / Fold change /veh SRD5A1 (11742802_a_at) / RFU TPSAB1 /// TPSB2 (11721975_s_at) / Fold change /veh TPSAB1 /// TPSB2 (11721975_s_at) / RFU GSTM3 (11746129_a_at) / Fold change /veh GSTM3 (11746129_a_at) / RFU IL23R (11737362_x_at) / Fold change /veh IL23R (11737362_x_at) / RFU TMEM51 (11727254_a_at) / Fold change /veh TMEM51 (11727254_a_at) / RFU PIWIL2 (11732686_x_at) / Fold change /veh PIWIL2 (11732686_x_at) / RFU ORM1 (11744905_x_at) / Fold change /veh ORM1 (11744905_x_at) / RFU CCDC152 (11743942_at) / Fold change /veh CCDC152 (11743942_at) / RFU ECM1 (11717891_a_at) / Fold change /veh ECM1 (11717891_a_at) / RFU IL23R (11748794_a_at) / Fold change /veh IL23R (11748794_a_at) / RFU TNFAIP8L3 (11732012_x_at) / Fold change /veh TNFAIP8L3 (11732012_x_at) / RFU MBOAT4 (11741988_at) / Fold change /veh MBOAT4 (11741988_at) / RFU 11764193_at / Fold change /veh 11764193_at / RFU TMEM53 (11763286_at) / Fold change /veh TMEM53 (11763286_at) / RFU MAGEB2 (11727129_at) / Fold change /veh MAGEB2 (11727129_at) / RFU TMEM200A (11744735_a_at) / Fold change /veh TMEM200A (11744735_a_at) / RFU CCDC152 (11751479_a_at) / Fold change /veh CCDC152 (11751479_a_at) / RFU FAM211A (11726209_a_at) / Fold change /veh FAM211A (11726209_a_at) / RFU RGS16 (11746705_a_at) / Fold change /veh RGS16 (11746705_a_at) / RFU VCAN (11755009_s_at) / Fold change /veh VCAN (11755009_s_at) / RFU RHOB (11743442_s_at) / Fold change /veh RHOB (11743442_s_at) / RFU RGS16 (11720943_a_at) / Fold change /veh RGS16 (11720943_a_at) / RFU RGS16 (11720944_at) / Fold change /veh RGS16 (11720944_at) / RFU, VPS4B / Fold change vs veh, VPS4B / RFU, CREB1 / Fold change vs veh, CREB1 / RFU, DNAJC13 / Fold change vs veh, DNAJC13 / RFU, GNAQ / Fold change vs veh, GNAQ / RFU, CDK5R1 / Fold change vs veh, CDK5R1 / RFU, ZRANB3 / Fold change vs veh, ZRANB3 / RFU, CUL4A / Fold change vs veh, CUL4A / RFU, CCNY / Fold change vs veh, CCNY / RFU, UFL1 / Fold change vs veh, UFL1 / RFU, COG3 / Fold change vs veh, COG3 / RFU, DIAPH2 / Fold change vs veh, DIAPH2 / RFU, SKA2 / Fold change vs veh, SKA2 / RFU, AFF3 / Fold change vs veh, AFF3 / RFU, LMF1 / Fold change vs veh, LMF1 / RFU, IPO11 / Fold change vs veh, IPO11 / RFU, DFFB / Fold change vs veh, DFFB / RFU, FOXP1 / Fold change vs veh, FOXP1 / RFU, CARD8 / Fold change vs veh, CARD8 / RFU, STRN3 / Fold change vs veh, STRN3 / RFU, ADK / Fold change vs veh, ADK / RFU, RASSF2 / Fold change vs veh, RASSF2 / RFU, WIPF1 / Fold change vs veh, WIPF1 / RFU, LARP1B / Fold change vs veh, LARP1B / RFU, RASA1 / Fold change vs veh, RASA1 / RFU, RB1 / Fold change vs veh, RB1 / RFU, PPFIA1 / Fold change vs veh, PPFIA1 / RFU, MAT2A / Fold change vs veh, MAT2A / RFU, CCT5 / Fold change vs veh, CCT5 / RFU, WDR92 / Fold change vs veh, WDR92 / RFU, CUX1 / Fold change vs veh, CUX1 / RFU, TTC7A / Fold change vs veh, TTC7A / RFU, TMEM135 / Fold change vs veh, TMEM135 / RFU, DEPTOR / Fold change vs veh, DEPTOR / RFU, CPM / Fold change vs veh, CPM / RFU, DNAJB6 / Fold change vs veh, DNAJB6 / RFU, CACNA2D3 / Fold change vs veh, CACNA2D3 / RFU, DTX4 / Fold change vs veh, DTX4 / RFU, TFCP2 / Fold change vs veh, TFCP2 / RFU, GMCL1 /// GMCL1P1 / Fold change vs veh, GMCL1 /// GMCL1P1 / RFU, AEBP2 / Fold change vs veh, AEBP2 / RFU, SNHG1 /// SNORD22 /// SNORD25 /// SNORD26 /// SNORD27 /// SNORD28 /// SNORD29 /// SNORD31 / Fold change vs veh, SNHG1 /// SNORD22 /// SNORD25 /// SNORD26 /// SNORD27 /// SNORD28 /// SNORD29 /// SNORD31 / Fold change (Aza/veh), C12orf56 (ProbeSet 11735607_a_at) / Fold change (ACY-1035/veh), C12orf56 (ProbeSet 11735607_a_at) / Fold change (Aza/veh), FGFR1OP (ProbeSet 11751329_s_at) / Fold change (ACY-1035/veh), FGFR1OP (ProbeSet 11751329_s_at) / Fold change (Aza/veh), VPS36 (ProbeSet 11739960_a_at) / Fold change (ACY-1035/veh), VPS36 (ProbeSet 11739960_a_at) / RFU SYPL1 (11715823_x_at) / Fold change /veh SYPL1 (11715823_x_at) / RFU IGFBP7 (11715501_s_at) / Fold change /veh IGFBP7 (11715501_s_at) / RFU REEP3 (11722064_at) / Fold change /veh REEP3 (11722064_at) / RFU IGLL1 (11728026_x_at) / Fold change /veh IGLL1 (11728026_x_at): dose or concentration left out as unconfirmed. Particulars: ProbeSet 11758440_s_at; LIST B.

With `Nc1ncn([C@@H]2O[C@H](CO)[C@@H](O)[C@H]2O)c(=O)n1` [azacitidine], the “RFU, RFX7” value is on record as 45.74 RFU.
